Among the data in ChEMBL document CHEMBL2311345, “Facile synthesis and characterization of novel pyrazole-sulfonamides and their inhibition effects on human carbonic anhydrase isoenzymes” (Bioorg Med Chem, 2013) are Ki values, retold here.

In one experiment the target is Carbonic anhydrase 2 (Homo sapiens, UniProt P00918). Description: Un-competitive inhibition of human erythrocytes carbonic anhydrase 2 esterase activity by Lineweaver-Burk plot analysis.
The next experiment addresses Carbonic anhydrase 1 (Homo sapiens, UniProt P00915). Description: Un-competitive inhibition of human erythrocytes carbonic anhydrase 1 esterase activity by Lineweaver-Burk plot analysis.

Sequence of Carbonic anhydrase 1 (P00915 whole entry): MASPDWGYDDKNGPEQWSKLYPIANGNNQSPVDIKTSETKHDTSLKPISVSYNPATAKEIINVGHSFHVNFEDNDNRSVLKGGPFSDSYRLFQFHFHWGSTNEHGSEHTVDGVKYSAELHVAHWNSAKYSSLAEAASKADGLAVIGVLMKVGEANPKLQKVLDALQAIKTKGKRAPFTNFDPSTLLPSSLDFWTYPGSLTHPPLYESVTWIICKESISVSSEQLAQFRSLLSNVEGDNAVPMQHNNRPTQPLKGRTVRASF

`NS(=O)(=O)c1ccc(NC(=O)c2nn(-c3cccc(/N=N/c4c(O)ccc5ccccc45)c3)c(-c3ccccc3)c2C(=O)O)cc1` had a Ki on Carbonic anhydrase 2 of 12.4 nM.
`CC(=O)/C(=N\Nc1cccc(-n2nc(C(=O)Nc3ccc(S(N)(=O)=O)cc3)c(C(=O)O)c2-c2ccccc2)c1)C(=O)c1ccccc1`: at Carbonic anhydrase 1, affinity was put at a Ki of 62.3 nM.
